Measured values reported in patent US7183306B2, “Pyrazole derivatives” (Astellas Pharma Inc., priority 2002, dated 2007).
pIC50: −log10 of the molar value.

How the values were obtained:
[1] = tested on: arthritic rats (adjuvant arthritis); assay: Analgesic activity: effect on adjuvant arthritis in rats (Randall-Selitto pain threshold); type: in vivo, Lewis rats; conditions: Rattus norvegicus, single dose, pain threshold of left hind paw 2 hrs after administration, threshold pressure of treated vs non-treated rats, ratio of 1.5 considered effective, read-out: The coefficient of analgesic
[2] = target: T1, COX-I (Homo sapiens, UniProt P23219); assay: Whole blood assay for COX-I (TXB2 production); type: cell-based
T1 construct: Fresh blood was collected by syringe without anticoagulants from volunteers with consent; from tissue; host or cells: fresh human whole blood from volunteers, allowed to clot
Description: [B] Inhibiting Activity Against COX-I and COX-II (Whole Blood Assay) (i) Test Metho: Whole Blood Assay for COX-I
Fresh blood was collected by syringe without anticoagulants from volunteers with consent. The subjects had no apparent inflammatory conditions and had not taken any medication for at least 7 days prior to blood collection.
500 μl Aliquots of human whole blood were immediately incubated with 2 μl of either dimethyl sulfoxide vehicle or a test compound at final concentrations for 1 hr at 37° C. to allow the blood to clot. Appropriate treatments (no incubation) were used as blanks. At the end of the incubation, 5 μl of 250 mM Indomethacin was added to stop the reaction. The blood was centrifuged at 6000×g for 5 min at 4° C. to obtain serum. A 100 μl aliquot of serum was mixed with 400 μl methanol for protein precipitation. The supernatant was obtained by centrifuging at 6000×g for 5 min at 4° C. and was assayed for TXB2 using an enzyme immunoassay kit according to the manufacturer's procedure. For a test compound, the results were expressed as percent inhibition of thromboxane B2(TXB2) production relative to control incubations containing dimethyl sulfoxide vehicle.
The data were analyzed by that a test compound at the indicated concentrations was changed log value and was applied simple linear regression. IC50 value was calculated by least squares method.

[3] = target: T2, COX-II (Homo sapiens, UniProt P35354); assay: Whole blood assay for COX-II (LPS-induced PGE2 production); type: cell-based; conditions: LPS 24 hrs at 37° C., inhibition of PGE2 production
T2 construct: incubation of the blood with 10 μl of 5 mg/ml lipopolysaccharide for 24 hrs at 37° C. for induction of COX-II; from tissue; host or cells: heparinized fresh human whole blood from volunteers, LPS-stimulated
T2 sequence (P35354 18-604): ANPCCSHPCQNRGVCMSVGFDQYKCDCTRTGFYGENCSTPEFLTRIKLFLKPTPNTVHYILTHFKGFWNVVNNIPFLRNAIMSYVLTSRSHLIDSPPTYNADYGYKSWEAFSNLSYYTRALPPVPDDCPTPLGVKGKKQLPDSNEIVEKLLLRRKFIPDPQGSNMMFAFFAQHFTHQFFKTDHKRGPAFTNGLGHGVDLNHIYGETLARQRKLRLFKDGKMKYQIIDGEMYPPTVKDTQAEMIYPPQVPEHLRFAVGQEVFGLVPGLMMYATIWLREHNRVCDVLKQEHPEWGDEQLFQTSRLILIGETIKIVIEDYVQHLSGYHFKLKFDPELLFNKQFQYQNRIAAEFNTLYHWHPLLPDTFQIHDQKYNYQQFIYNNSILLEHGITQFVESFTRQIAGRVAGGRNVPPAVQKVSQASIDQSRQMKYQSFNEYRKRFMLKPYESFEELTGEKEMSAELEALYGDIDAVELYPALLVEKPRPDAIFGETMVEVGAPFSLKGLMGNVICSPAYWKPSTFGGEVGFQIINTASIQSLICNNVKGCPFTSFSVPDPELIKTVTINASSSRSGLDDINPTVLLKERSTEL
Description: Whole Blood Assay for COX-II
Fresh blood was collected in heparinized tubes by syringe from volunteers with consent. The subjects had no apparent inflammatory conditions and had not taken any medication for at least 7 days prior to blood collection.
500 μl aliquots of human whole blood were incubated with either 2 μl dimethyl sulfoxide vehicle or 2 μl of a test compound at final concentrations for 15 min at 37° C. This was followed by incubation of the blood with 10 μl of 5 mg/ml lipopolysaccharide for 24 hrs at 37° C. for induction of COX-II. Appropriate PBS treatments (no LPS) were used as blanks. At the end of the incubation, the blood was centrifuged at 6000×g for 5 min at 4° C. to obtain plasma. A 100 μl aliquot of plasma was mixed with 400 μl methanol for protein precipitation. The supernatant was obtained by centrifuging at 6000×g for 5 min at 4° C. and was assayed for prostaglandin E2 (PGE2) using a radioimmunoassay kit after conversion of PGE2 to its methyl oximate derivative according to the manufacturer's procedure.
For a test compound, the results were expressed as percent inhibition of PGE2 production relative to control incubations containing dimethyl sulfoxide vehicle. The data were analyzed by that a test compound at the indicated concentrations was changed log value and was applied simple linear regression. IC50 value was calculated by least squares method.

T1 sequence (P23219 24-599): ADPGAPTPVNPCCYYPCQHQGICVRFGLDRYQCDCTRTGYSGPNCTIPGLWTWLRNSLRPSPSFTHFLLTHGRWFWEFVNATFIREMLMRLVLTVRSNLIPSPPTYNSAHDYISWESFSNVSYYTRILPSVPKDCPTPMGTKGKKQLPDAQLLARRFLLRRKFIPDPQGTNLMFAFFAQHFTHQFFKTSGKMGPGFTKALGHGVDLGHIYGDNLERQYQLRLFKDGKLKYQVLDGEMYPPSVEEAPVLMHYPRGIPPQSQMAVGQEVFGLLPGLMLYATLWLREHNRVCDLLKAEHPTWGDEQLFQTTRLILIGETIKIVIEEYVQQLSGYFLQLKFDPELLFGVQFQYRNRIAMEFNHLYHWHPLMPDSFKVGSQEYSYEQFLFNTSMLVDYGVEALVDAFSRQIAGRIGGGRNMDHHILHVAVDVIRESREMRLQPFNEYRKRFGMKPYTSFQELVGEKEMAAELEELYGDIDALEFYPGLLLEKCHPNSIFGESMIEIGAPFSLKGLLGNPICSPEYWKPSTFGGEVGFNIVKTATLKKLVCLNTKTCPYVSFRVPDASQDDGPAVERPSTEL

Structure (SMILES)	response vs control in vivo at 3.2 mg/kg [1] [%]	pIC50 [2]	pIC50 [3]	melting point [°C]
COc1ccc(-n2nc(Cl)cc2-c2ccc(OCCO)cc2)cc1 [Example 23, 2-{4-[3-Chloro-1-(4-methoxyphenyl)-1H-pyrazol-5-yl]-phenoxy}ethanol]	> 150	> 8.00	< 7.00	114.7 to 115.5
COc1ccc(-n2nc(Cl)cc2-c2ccc(OCCNC(N)=O)cc2)cc1 [Example 28, N-(2-{4-[3-Chloro-1-(4-methoxyphenyl)-1H-pyrazol-5-yl]-phenoxy}ethyl)urea]	> 150	> 8.00	< 7.00	144.8 to 145.4
COc1ccc(-n2nc(C(F)F)cc2-c2ccc(CNS(C)(=O)=O)cc2)cc1 [Example 61, N-{4-[3-(Difluoromethyl)-1-(4-methoxyphenyl)-1H-pyrazol-5-yl]benzyl}methanesulfonamide]	> 150	> 8.00	< 7.00	–
COc1ccc(C2N=C(C(F)F)C=C2c2ccc(OCCNC(N)=O)cc2)cc1 (centres unmarked) [Example 181]	≥ 150	> 8.00	< 7.00	–
COc1ccc(-n2nc(C(F)(F)F)cc2-c2ccc(OCCNC(N)=O)cc2)cc1 [Example 240]	≥ 150	> 8.00	< 7.00	–
COc1ccc(-n2nc(C3CC3)cc2-c2ccc(OCCNC(N)=O)cc2)cc1 [Example 248]	≥ 150	> 8.00	< 7.00	150.8 to 151
COc1ccc(-n2nc(C(F)F)cc2-c2ccc(OCCNC(N)=O)cc2)cn1 [Example 250]	≥ 150	> 8.00	< 7.00	141.5 to 142.1
COc1ccc(-n2nc(C(F)(F)F)cc2-c2ccc(OCCNC(C)=O)cc2)cc1 [Example 254]	≥ 150	> 8.00	< 7.00	109.8 to 110.2
